According to patent US8338565B2, “Macrocyclic compounds for inhibition of tumor necrosis factor alpha” (Ensemble Therapeutics Corporation, priority 2008, dated 2012):
Numbered stars: 1 amine (or outer) side, 2 acyl side, 3 side chain; on linkers, the order of the positions; unused ones are H or OH. Bridge positions count the residues as written; N and C are the ends. Square brackets hold non-standard residues; d marks the D form. Peptide text beside a SMILES is read from it. * marks the point of attachment. Tartaroyl(2R,3R-(OAc)2) = CC(=O)O[C@@H](C(=O)[*:1])[C@@H](OC(C)=O)C(=O)[*:2]; dAla(benzothien-2-yl) = N[C@H](Cc1cc2ccccc2s1)C(=O)O; Phe(4-CF3) = N[C@@H](Cc1ccc(C(F)(F)F)cc1)C(=O)O; Phe(4-COOH) = N[C@@H](Cc1ccc(C(=O)O)cc1)C(=O)O; Bip = N[C@@H](Cc1ccc(-c2ccccc2)cc1)C(=O)O; dBip = N[C@H](Cc1ccc(-c2ccccc2)cc1)C(=O)O; dPhe(4-NH2) = Nc1ccc(C[C@@H](N)C(=O)O)cc1; Phe(4-NH2) = Nc1ccc(C[C@H](N)C(=O)O)cc1; dAla(2-furyl) = N[C@H](Cc1ccco1)C(=O)O; Met(O2) = CS(=O)(=O)CC[C@H](N)C(=O)O; dIgl = N[C@@H](C(=O)O)C1Cc2ccccc2C1; d(hPhe) = N[C@H](CCc1ccccc1)C(=O)O; hPhe = N[C@@H](CCc1ccccc1)C(=O)O; 2Thi = N[C@@H](Cc1cccs1)C(=O)O; Cha = N[C@@H](CC1CCCCC1)C(=O)O; d2Thi = N[C@H](Cc1cccs1)C(=O)O; dPhg = N[C@@H](C(=O)O)c1ccccc1; Suc = O=C(CCC(=O)[*:2])[*:1]; X2 = O=C(O)[C@H]1CCCN(*)C1; GABA = NCCCC(=O)O; OtBu = CC(C)(C)O*; βAla = NCCC(=O)O; tBu = CC(C)(C)*

target: T1, TNFα / TNFα receptor (TNFα R1/Fc) (Homo sapiens, UniProt P01375); assay: Inhibition of binding of TNFα to the TNFα receptor (plate ELISA competition); settings: Table 2; read-out: Activity (IC50, inhibition of TNFα binding to TNFα R1/Fc)
T1 construct: purchased R&D Systems
T1 sequence (P01375 77-233 limits assumed, species assumed): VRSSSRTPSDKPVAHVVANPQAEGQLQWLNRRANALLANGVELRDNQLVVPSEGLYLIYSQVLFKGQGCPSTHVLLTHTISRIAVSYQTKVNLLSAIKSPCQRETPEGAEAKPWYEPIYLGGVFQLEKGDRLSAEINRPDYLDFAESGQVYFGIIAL
Method in brief: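 Plates were coated with TNFα at 15 nM. Test compound and 8.33 nM receptor-Fc (PBST, 2% DMSO) were first mixed in solution for 30 min at room temperature, then transferred to the plates for another 30 min. Competition was read by absorbance at 450 nm after HRP anti-human IgG Fc detection with TMB.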

IC50	SMILES
> 100 µM	O=C1COc2ccc(cc2)C[C@@H](C(=O)O)NC(=O)[C@H](Cc2ccccc2)NC(=O)[C@H](Cc2ccc(Cl)cc2Cl)NC(=O)[C@H](Cc2cccs2)N1 [Compound 367]
10 to 30 µM	COc1cccc(C[C@H]2NC(=O)[C@H](O)[C@@H](O)C(=O)Nc3ccc(cc3)C[C@@H](C(=O)O)NC(=O)[C@@H](Cc3ccccc3)NC(=O)[C@H](Cc3ccc(-c4ccccc4)cc3)NC2=O)c1 [Compound 317]
> 100 µM	O=C1N[C@@H](C(=O)O)Cc2ccc(cc2)NC(=O)[C@H](O)[C@@H](O)C(=O)N[C@@H](Cc2cccs2)C(=O)N[C@H](Cc2ccc(-c3ccccc3)cc2)C(=O)N[C@H]1Cc1ccccc1 [Compound 279]
< 10 µM	COC(=O)[C@@H]1Cc2ccc(cc2)NC(=O)CCC(=O)N[C@H](Cc2cccs2)C(=O)N[C@@H](Cc2ccc(-c3ccccc3)cc2)C(=O)N[C@H](Cc2ccccc2)C(=O)N1 [Compound 192] ([d2Thi][Bip][dF][Phe(4-NH2)]-OMe; linker N-4 via Suc)
> 100 µM	O=C1CCC(=O)N[C@H](C2Cc3ccccc3C2)C(=O)N[C@@H](Cc2ccc(C(F)(F)F)cc2)C(=O)N[C@H](Cc2ccccc2)C(=O)N[C@H](C(=O)O)Cc2ccc(cc2)N1 [Compound 165] ([dIgl][Phe(4-CF3)][dF][Phe(4-NH2)]-OH; linker N-4 via Suc)
> 100 µM	O=C1N[C@@H](C(=O)O)Cc2ccc(cc2)NC(=O)[C@H](O)[C@@H](O)C(=O)N[C@@H](Cc2cccs2)C(=O)N[C@H](Cc2ccc(-c3ccccc3)cc2)C(=O)N[C@H]1Cc1ccccc1 [Compound 278]
> 100 µM	CC(=O)O[C@H]1C(=O)Nc2ccc(cc2)C[C@H](C(=O)N[C@@H](Cc2ccccc2)C(=O)O)NC(=O)[C@H](Cc2ccccc2)NC(=O)[C@@H](Cc2ccc(-c3ccccc3)cc2)NC(=O)[C@H](Cc2cccs2)NC(=O)[C@@H]1OC(C)=O [Compound 413] ([2Thi][dBip]F[dPhe(4-NH2)]F-OH; linker N-4 via Tartaroyl(2R,3R-(OAc)2))
< 10 µM	O=C1COc2ccc(cc2)C[C@@H](C(=O)O)NC(=O)[C@H](CCc2ccccc2)NC(=O)[C@@H](Cc2ccc(-c3ccccc3)cc2)NC(=O)[C@H](Cc2cccnc2)N1 [Compound 662]
30 to 100 µM	O=C1CCC(=O)N[C@H](Cc2cc3ccccc3s2)C(=O)N[C@@H](Cc2ccc(C(F)(F)F)cc2)C(=O)N[C@H](Cc2ccccc2)C(=O)N[C@H](C(=O)O)Cc2ccc(cc2)N1 [Compound 164] ([dAla(benzothien-2-yl)][Phe(4-CF3)][dF][Phe(4-NH2)]-OH; linker N-4 via Suc)
> 100 µM	CC(C)(C)OC(=O)C[C@H]1NC(=O)[C@H](Cc2ccc(-c3ccccc3)cc2)NC(=O)[C@@H](Cc2cccs2)NC(=O)CCC(=O)Nc2ccc(cc2)C[C@@H](C(=O)O)NC1=O [Compound 63] ([d2Thi][Bip][dD](OtBu)[Phe(4-NH2)]-OH; linker N-4 via Suc)
< 10 µM	O=C(O)CNC(=O)[C@@H]1Cc2ccc(cc2)OCC(=O)N[C@@H](Cc2cccs2)C(=O)N[C@H](Cc2ccc(-c3ccccc3)cc2)C(=O)N[C@@H](CCc2ccccc2)C(=O)N1 [Compound 472]
10 to 30 µM	O=C1COc2ccc(cc2)C[C@@H](C(=O)O)NC(=O)[C@@H](CCc2ccccc2)NC(=O)[C@H](Cc2ccc(-c3ccccc3)cc2)NC(=O)[C@@H](Cc2ccc(F)c(F)c2)N1 [Compound 524]

More lines, now with the values behind:

SMILES	IC50
O=C1CCC(=O)N[C@H](Cc2cccs2)C(=O)N[C@@H](Cc2ccc(-c3ccccc3)cc2)C(=O)N[C@H](Cc2ccco2)C(=O)N[C@H](C(=O)O)Cc2ccc(cc2)N1 [Compound 48] ([d2Thi][Bip][dAla(2-furyl)][Phe(4-NH2)]-OH; linker N-4 via Suc)	10 to 30 µM
O=C1CCC(=O)N[C@H](Cc2cccs2)C(=O)N[C@@H](Cc2ccc(-c3ccccc3)cc2)C(=O)N[C@H](CCc2ccccc2)C(=O)N[C@H](C(=O)O)Cc2ccc(cn2)N1 [Compound 547]	< 10 µM
O=C1CCNC(=O)c2ccc(cc2)C[C@@H](C(=O)O)NC(=O)[C@H](Cc2ccccc2)NC(=O)[C@@H](Cc2ccc(-c3ccccc3)cc2)NC(=O)[C@H](CCc2ccccc2)N1 [Compound 465] ([βAla][hPhe][dBip]F[Phe(4-COOH)]-OH; lactam N-5)	< 10 µM
O=C(O)[C@@H]1Cc2ccc(cc2)NC(=O)[C@H](O)[C@@H](O)C(=O)N[C@H](Cc2cccs2)C(=O)N[C@@H](Cc2ccc(-c3ccccc3)cc2)C(=O)N[C@@H](Cc2ccccc2)C(=O)N1 [Compound 268]	> 100 µM
O=C(O)[C@H](Cc1cccnc1)NC(=O)[C@@H]1Cc2ccc(cc2)NC(=O)[C@H](O)[C@@H](O)C(=O)N[C@H](Cc2cccs2)C(=O)N[C@@H](Cc2ccc(-c3ccccc3)cc2)C(=O)N[C@H](CCc2ccccc2)C(=O)N1 [Compound 405]	> 100 µM
O=C(O)CCCNC(=O)[C@@H]1Cc2ccc(cc2)NC(=O)CCC(=O)N[C@H](Cc2cccs2)C(=O)N[C@@H](Cc2ccc(-c3ccccc3)cc2)C(=O)N[C@H](CCc2ccccc2)C(=O)N1 [Compound 449] ([d2Thi][Bip][d(hPhe)][Phe(4-NH2)][GABA]-OH; linker N-4 via Suc)	> 100 µM
O=C1CCC(=O)N[C@H](Cc2cccs2)C(=O)N[C@@H](Cc2ccc(-c3ccccc3)cc2)C(=O)N[C@H](c2ccccc2)C(=O)N[C@H](C(=O)O)Cc2ccc(cc2)N1 [Compound 76] ([d2Thi][Bip][dPhg][Phe(4-NH2)]-OH; linker N-4 via Suc)	10 to 30 µM
O=C1COc2ccc(cc2)C[C@H](C(=O)N[C@H](CCc2ccccc2)C(=O)O)NC(=O)[C@H](CCc2ccccc2)NC(=O)[C@@H](Cc2ccc(-c3ccccc3)cc2)NC(=O)[C@H](Cc2ccncc2)N1 [Compound 738]	< 10 µM
O=C1CCC(=O)N[C@H](Cc2cccs2)C(=O)N[C@@H](Cc2ccc(-c3ccccc3)cc2)C(=O)N[C@H](CCc2ccccc2)C(=O)N[C@H](C(=O)N[C@@H](Cc2ccccc2)C(=O)O)Cc2ccc(cc2)N1 [Compound 445] ([d2Thi][Bip][d(hPhe)][Phe(4-NH2)]F-OH; linker N-4 via Suc)	10 to 30 µM
O=C1CCC(=O)N[C@@H](Cc2cccs2)C(=O)N[C@H](Cc2ccc(-c3ccccc3)cc2)C(=O)N[C@H](Cc2ccccc2)C(=O)N[C@@H](C(=O)O)Cc2ccc(cc2)N1 [Compound 501] ([2Thi][dBip][dF][dPhe(4-NH2)]-OH; linker N-4 via Suc)	> 100 µM
O=C1COc2ccc(cc2)C[C@@H](C(=O)O)NC(=O)[C@H](Cc2ccccc2)NC(=O)[C@H](Cc2ccc(-c3ccc(Cl)cc3)cc2)NC(=O)[C@H](Cc2cccs2)N1 [Compound 365]	30 to 100 µM
CC(C)(C)Oc1ccc(C[C@@H]2NC(=O)[C@@H](Cc3cccs3)NC(=O)CCC(=O)Nc3ccc(cc3)C[C@@H](C(=O)O)NC(=O)[C@@H](Cc3ccccc3)NC2=O)cc1 [Compound 86] ([d2Thi]Y(tBu)[dF][Phe(4-NH2)]-OH; linker N-4 via Suc)	> 100 µM
O=C1COc2ccc(cc2)C[C@@H](C(=O)NCS(=O)(=O)O)NC(=O)[C@H](CCc2ccccc2)NC(=O)[C@@H](Cc2ccc(-c3ccccc3)cc2)NC(=O)[C@H](Cc2ccc(-c3ccncc3)cc2)N1 [Compound 617]	< 10 µM
O=C(O)[C@H](Cc1ccccc1)NC(=O)[C@@H]1Cc2ccc(cc2)NC(=O)[C@H](O)[C@@H](O)C(=O)N[C@@H](Cc2cccs2)C(=O)N[C@H](Cc2ccc(Br)cc2)C(=O)N[C@@H](CCc2ccccc2)C(=O)N1 [Compound 437]	10 to 30 µM
O=C1COc2ccc(cc2)C[C@@H](C(=O)O)NC(=O)[C@@H](CCc2ccccc2)NC(=O)[C@H](Cc2ccc(-c3ccccc3)cc2)NC(=O)[C@@H](Cc2ccc(F)cc2)N1 [Compound 519]	10 to 30 µM
O=C1COc2ccc(cc2)C[C@@H](C(=O)O)NC(=O)[C@@H](Cc2cccc(C(F)(F)F)c2)NC(=O)[C@H](Cc2ccc(-c3ccccc3)cc2)NC(=O)[C@@H](Cc2cccs2)N1 [Compound 533]	> 100 µM
O=C1CCC(=O)N[C@@H](CC2CCCCC2)C(=O)N[C@@H](Cc2ccc(-c3ccccc3)cc2)C(=O)N[C@H](CCc2ccccc2)C(=O)N[C@H](C(=O)O)Cc2ccc(cc2)N1 [Compound 191] ([Cha][Bip][d(hPhe)][Phe(4-NH2)]-OH; linker N-4 via Suc)	< 10 µM
O=C1CCC(=O)N[C@H](CCc2ccccc2)C(=O)N[C@@H](Cc2ccc(C(F)(F)F)cc2)C(=O)N[C@H](Cc2ccccc2)C(=O)N[C@@H](C(=O)N[C@H](Cc2ccccc2)C(=O)O)Cc2ccc(cc2)N1 [Compound 13] ([d(hPhe)][Phe(4-CF3)][dF][dPhe(4-NH2)][dF]-OH; linker N-4 via Suc)	> 100 µM
CS(=O)(=O)CC[C@@H]1NC(=O)[C@@H](Cc2cccs2)NC(=O)CCC(=O)Nc2ccc(cc2)C[C@@H](C(=O)O)NC(=O)[C@@H](Cc2ccccc2)NC1=O [Compound 98] ([d2Thi][Met(O2)][dF][Phe(4-NH2)]-OH; linker N-4 via Suc)	> 100 µM
O=C(O)[C@H](Cc1ccccc1)NC(=O)[C@@H]1Cc2ccc(cc2)NC(=O)[C@H](O)[C@@H](O)C(=O)N[C@H](Cc2cccs2)C(=O)N[C@@H](Cc2ccc(-c3ccc(Cl)cc3)cc2)C(=O)N[C@H](Cc2ccccc2)C(=O)N1 [Compound 443]	10 to 30 µM
O=C1CCC(=O)N[C@H](Cc2ccco2)C(=O)N[C@@H](Cc2ccc(-c3ccccc3)cc2)C(=O)N[C@H](Cc2ccccc2)C(=O)N[C@H](C(=O)O)Cc2ccc(cc2)N1 [Compound 123] ([dAla(2-furyl)][Bip][dF][Phe(4-NH2)]-OH; linker N-4 via Suc)	30 to 100 µM
O=C1COc2ccc(cc2)C[C@@H](C(=O)O)NC(=O)[C@H](Cc2ccccc2)NC(=O)[C@@H](Cc2cccc3ccccc23)NC(=O)[C@H](Cc2cccs2)N1 [Compound 357]	> 100 µM
O=C1CCC(=O)N[C@H](Cc2cccs2)C(=O)N[C@@H](Cc2ccc(-c3ccccc3)cc2)C(=O)N[C@H](Cc2ccccc2)C(=O)N[C@H](C(=O)N2CCC[C@H](C(=O)O)C2)Cc2ccc(cc2)N1 [Compound 37] ([d2Thi][Bip][dF][Phe(4-NH2)]-X2; linker N-4 via Suc)	> 100 µM
